{"source": "patent US12084472B2", "about": "(Ardelyx, Inc., priority 2015, dated 2024)"}
{"biological_target": "T1, human TGR5 (Homo sapiens, UniProt Q8TDU6)", "T1 construct": "expressed in transfected cells; host or cells: HEK293", "T1 sequence (Q8TDU6 1-330)": "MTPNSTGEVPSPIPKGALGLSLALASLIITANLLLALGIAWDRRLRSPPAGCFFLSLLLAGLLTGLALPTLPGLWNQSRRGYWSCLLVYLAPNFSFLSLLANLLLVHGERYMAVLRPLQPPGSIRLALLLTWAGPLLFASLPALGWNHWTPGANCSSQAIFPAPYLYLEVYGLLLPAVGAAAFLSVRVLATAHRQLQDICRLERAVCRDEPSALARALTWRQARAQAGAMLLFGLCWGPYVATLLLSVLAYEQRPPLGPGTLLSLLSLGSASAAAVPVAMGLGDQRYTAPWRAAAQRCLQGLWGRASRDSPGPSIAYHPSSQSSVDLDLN", "experiment": "Cell-based TGR5 assay (cAMP generation, HTRF)", "settings": "HEK293 cells stably transfected with human TGR5; cAMP by HTRF; 30 minutes at 37° C.", "how_it_was_run": "(§1)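 Read-out was HTRF detection of cAMP, converted to concentration via a standard curve and fitted (3-parameter logistic) for pEC50 and maximal response. Agonist stimulation used HEK293 cells stably transfected with human TGR5, incubated 30 min at 37° C in IBMX-containing buffer at 0.05 nM to 10 μM compound.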"}
{"smiles": "CN(CCCCNC(=O)NCCOCCOCCNC(=O)NCCCCNC(=O)NCCOCCOCCNC(=O)NCCCCN(C)S(=O)(=O)c1ccc(Cl)c(COC2(c3cnccc3-c3ccccc3OC3CC3)CC2)c1)S(=O)(=O)c1ccc(Cl)c(COC2(c3cnccc3-c3ccccc3OC3CC3)CC2)c1", "note": "[Compound I-736, 3-(4-[N-methyl[4-chloro-3-([1-[4-(2-cyclopropoxyphenyl)pyridin-3-yl]cyclopropoxy]methyl)benzene]sulfonamido]butyl)-1-[2-(2-[2-[([4-[([2-[2-(2-[[(4-[N-methyl[4-chloro-3-([1-[4-(2-cyclopropoxyphenyl)pyridin-3-yl]cyclopropoxy]methyl)benzene]sulfonamido]butyl)carbamoyl]amino]ethoxy)ethoxy]ethyl]carbamoyl)amino]butyl]carbamoyl)amino]ethoxy]ethoxy)ethyl]urea]", "pEC50 Human TGR5": "B (B is a pEC50 of 6 to 6.9)"}
{"biological_target": "T1, human TGR5", "experiment": "Cell-based TGR5 assay (cAMP generation, HTRF)", "settings": "HEK293 cells stably transfected with human TGR5; cAMP by HTRF; 30 minutes at 37° C.; read-out: pEC50 Human TGR5 (converted)", "how_it_was_run": "as §1", "units": {"EC50": "µM"}}
{"smiles": "Cc1ccc(Cl)c(CNC2(c3cnccc3-c3ccccc3OC3CC3)CC2)c1", "note": "[Compound I-33, N-[(2-chloro-5-methylphenyl)methyl]-1-[4-(2-cyclopropoxyphenyl)pyridin-3-yl]cyclopropan-1-amine]", "EC50": "< 0.1"}
{"smiles": "O=C(NCCCCSc1ccc(Cl)c(COC2(c3cnccc3-c3ccccc3OC3CC3)CC2)c1)N[C@@H](CO)[C@@H](O)[C@H](O)[C@H](O)CO", "note": "[Compound I-628, 1-(4-{[4-chloro-3-({1-[4-(2-cyclopropoxyphenyl)pyridin-3-yl]cyclopropoxy}methyl)phenyl]sulfanyl}butyl)-3-[(2S,3R,4S,5R)-1,3,4,5,6-pentahydroxyhexan-2-yl]urea]", "EC50": "< 0.1"}
{"smiles": "Cc1ccc(S(=O)(=O)N(C)CCCCNC(=O)NC[C@H](O)[C@@H](O)[C@H](O)[C@H](O)CO)cc1CNC1(c2cnccc2-c2ccccc2OC2CC2)CC1", "note": "[Compound I-477, 1-(4-{N-methyl3-[({1-[4-(2-cyclopropoxyphenyl)pyridin-3-yl]cyclopropyl}amino)methyl]-4-methylbenzenesulfonamido}butyl)-3-[(2S,3R,4R,5R)-2,3,4,5,6-pentahydroxyhexyl]urea]", "EC50": "< 0.1"}
{"smiles": "CCCN(C[C@H](O)[C@@H](O)[C@H](O)[C@H](O)CO)C(=O)CCCCc1cc(Cl)c(COC2(c3cnccc3-c3ccccc3OC3CC3)CC2)cc1Cl", "note": "[Compound I-129, 5-[2,5-dichloro-4-({1-[4-(2-cyclopropoxyphenyl)pyridin-3-yl]cyclopropoxy}methyl)phenyl]-N-[(2S,3R,4R,5R)-2,3,4,5,6-pentahydroxyhexyl]-N-propylpentanamide]", "EC50": "< 0.1"}
{"smiles": "Clc1cccc(COC2(c3cnccc3-c3ccccc3OC3CC3)CC2)c1Cl", "note": "[Compound I-47, 4-(2-cyclopropoxyphenyl)-3-{1-[(2,3-dichlorophenyl)methoxy]cyclopropyl}pyridine]", "EC50": "0.126 to 1"}
{"smiles": "Cc1ccc(C(C)CCCC(=O)N(CCC(N)=O)C[C@H](O)[C@@H](O)[C@H](O)[C@H](O)CO)cc1CNC1(c2cnccc2-c2ccccc2OC2CC2)CC1", "note": "(stereo partly drawn) [Compound I-359, N-(2-carbamoylethyl)-5-{3-[({1-[4-(2-cyclopropoxyphenyl)pyridin-3-yl]cyclopropyl}amino)methyl]-4-methylphenyl}-N-[(2S,3R,4R,5R)-2,3,4,5,6-pentahydroxyhexyl]hexanamide]", "EC50": "0.126 to 1"}
{"smiles": "CC(CCCNC(=O)NC[C@H](O)[C@@H](O)[C@H](O)[C@H](O)CO)c1ccc(Cl)c(CNC2(c3cnccc3-c3ccccc3OC3CC3)CC2)c1", "note": "(stereo partly drawn) [Compound I-265, 1-(4-{4-chloro-3-[({1-[4-(2-cyclopropoxyphenyl)pyridin-3-yl]cyclopropyl}amino)methyl]phenyl}pentyl)-3-[(2S,3R,4R,5R)-2,3,4,5,6-pentahydroxyhexyl]urea]", "EC50": "< 0.1"}
{"smiles": "COc1ccccc1-c1ccncc1C1(NCc2cc(Cl)c(CCCCC(=O)NC[C@H](O)[C@@H](O)[C@H](O)[C@H](O)CO)cc2Cl)CC1", "note": "[Compound I-133, 5-{2,5-dichloro-4-[({1-[4-(2-methoxyphenyl)pyridin-3-yl]cyclopropyl}amino)methyl]phenyl}-N-[(2S,3R,4R,5R)-2,3,4,5,6-pentahydroxyhexyl]pentanamide]", "EC50": "0.126 to 1"}
{"smiles": "O=C(NCCC1CN(S(=O)(=O)c2ccc(Cl)c(COC3(c4cnccc4-c4ccccc4OC4CC4)CC3)c2)C1)NC[C@H](O)[C@@H](O)[C@H](O)[C@H](O)CO", "note": "[Compound I-421, 1-(2-{1-[4-chloro-3-({1-[4-(2-cyclopropoxyphenyl)pyridin-3-yl]cyclopropoxy}methyl)benzenesulfonyl]azetidin-3-yl}ethyl)-3-[(2S,3R,4R,5R)-2,3,4,5,6-pentahydroxyhexyl]urea]", "EC50": "< 0.1"}
{"smiles": "CN(C)C(=O)CCN(C[C@H](O)[C@@H](O)[C@H](O)[C@H](O)CO)C(=O)CCCCc1cc(Cl)c(COC2(c3cnccc3-c3ccccc3OC3CC3)CC2)cc1Cl", "note": "[Compound I-222, 5-[2,5-dichloro-4-({1-[4-(2-cyclopropoxyphenyl)pyridin-3-yl]cyclopropoxy}methyl)phenyl]-N-[2-(dimethylcarbamoyl)ethyl]-N-[(2S,3R,4R,5R)-2,3,4,5,6-pentahydroxyhexyl]pentanamide]", "EC50": "< 0.1"}
{"smiles": "CCc1ccccc1-c1ccncc1C1(NCc2cc(Cl)ccc2Cl)CC1", "note": "[Compound I-9, N-[(2,5-dichlorophenyl)methyl]-1-[4-(2-ethylphenyl)pyridin-3-yl]cyclopropan-1-amine]", "EC50": "0.126 to 1"}
{"smiles": "O=C([C@@H](O)[C@@H](O)[C@H](O)[C@@H](O)CO)N(CCCCSc1ccc(Cl)c(CNC2(c3cnccc3-c3ccccc3OC3CC3)CC2)c1)CCOCCO", "note": "[Compound I-533, (2S,3S,4R,5S)-N-[4-({4-chloro-3-[({1-[4-(2-cyclopropoxyphenyl)pyridin-3-yl]cyclopropyl}amino)methyl]phenyl}sulfanyl)butyl]-2,3,4,5,6-pentahydroxy-N-[2-(2-hydroxyethoxy)ethyl]hexanamide]", "EC50": "< 0.1"}
{"smiles": "CN(C[C@H](O)[C@@H](O)[C@H](O)[C@H](O)CO)C(=O)CCCCc1ccc(Cl)c(CNC2(c3cnccc3-c3ccccc3OC3CC3)CC2)c1", "note": "(stereo in doubt) [Compound I-234, 5-{4-chloro-3-[({1-[4-(2-cyclopropoxyphenyl)pyridin-3-yl]cyclopropyl}amino)methyl]phenyl}-N-methyl-N-[(2S,3R,4R,5R)-2,3,4,5,6-pentahydroxyhexyl]pentanamide]", "EC50": "< 0.1"}
{"smiles": "CCc1ccc(SCCCC(=O)N(C)C[C@H](O)[C@@H](O)[C@H](O)[C@H](O)CO)cc1COC1(c2cnccc2-c2ccccc2OC2CC2)CC1", "note": "[Compound I-691, 4-{[3-({1-[4-(2-cyclopropoxyphenyl)pyridin-3-yl]cyclopropoxy}methyl)-4-ethylphenyl]sulfanyl}-N-methyl-N-[(2S,3R,4R,5R)-2,3,4,5,6-pentahydroxyhexyl]butanamide]", "EC50": "0.126 to 1"}
{"smiles": "CN(CCO[C@@H]1O[C@H](CO)[C@@H](O)[C@H](O)[C@H]1O)C(=O)CCCCc1cc(Cl)c(COC2(c3cnccc3-c3ccccc3OC3CC3)CC2)cc1Cl", "note": "[Compound I-121, 5-(2,5-dichloro-4-((1-(4-(2-cyclopropoxyphenyl)pyridin-3-yl)cyclopropoxy)methyl)phenyl)-N-methyl-N-(2-(((2R,3R,4S,5S,6R)-3,4,5-trihydroxy-6-(hydroxymethyl)tetrahydro-2H-pyran-2-yl)oxy)ethyl)pentanamide]", "EC50": "< 0.1"}
{"smiles": "O=C([C@@H](O)[C@@H](O)[C@H](O)[C@@H](O)CO)N(CCCCSc1ccc(Cl)c(CNC2(c3cnccc3-c3ccccc3OC3CC3)CC2)c1)C1CCOCC1", "note": "[Compound I-535, (2S,3S,4R,5S)-N-[4-({4-chloro-3-[({1-[4-(2-cyclopropoxyphenyl)pyridin-3-yl]cyclopropyl}amino)methyl]phenyl}sulfanyl)butyl]-2,3,4,5,6-pentahydroxy-N-(oxan-4-yl)hexanamide]", "EC50": "0.126 to 1"}
{"smiles": "CC(CCCC(=O)N(C)C[C@H](O)[C@@H](O)[C@H](O)[C@H](O)CO)c1ccc(Cl)c(CNC2(c3cnccc3-c3ccccc3OC3CC3)CC2)c1", "note": "(stereo partly drawn) [Compound I-327, 5-{4-chloro-3-[({1-[4-(2-cyclopropoxyphenyl)pyridin-3-yl]cyclopropyl}amino)methyl]phenyl}-N-methyl-N-[(2S,3R,4R,5R)-2,3,4,5,6-pentahydroxyhexyl]hexanamide]", "EC50": "< 0.1"}
{"smiles": "Cc1cc(CNC2(c3cnccc3-c3ccccc3OC3CC3)CC2)c(Cl)cc1CCCCC(=O)N(C)C[C@H](O)[C@@H](O)[C@H](O)[C@H](O)CO", "note": "[Compound I-143, 5-{5-chloro-4-[({1-[4-(2-cyclopropoxyphenyl)pyridin-3-yl]cyclopropyl}amino)methyl]-2-methylphenyl}-N-methyl-N-[(2S,3R,4R,5R)-2,3,4,5,6-pentahydroxyhexyl]pentanamide]", "EC50": "< 0.1"}
{"smiles": "CN(C[C@H](O)[C@@H](O)[C@H](O)[C@H](O)CO)C(=O)CN1CCN(CCNC(=O)CCCCc2cc(Cl)c(COC3(c4cnccc4-c4ccccc4OC4CC4)CC3)cc2Cl)CC1", "note": "[Compound I-100, 5-[2,5-dichloro-4-({1-[4-(2-cyclopropoxyphenyl)pyridin-3-yl]cyclopropoxy}methyl)phenyl]-N-{2-[4-({methyl[(2S,3R,4R,5R)-2,3,4,5,6-pentahydroxyhexyl]carbamoyl}methyl)piperazin-1-yl]ethyl}pentanamide]", "EC50": "< 0.1"}
{"smiles": "O=C(NC[C@H](O)[C@@H](O)[C@H](O)[C@H](O)CO)C1CCC(NS(=O)(=O)c2ccc(Cl)c(COC3(c4cnccc4-c4ccccc4OC4CC4)CC3)c2)C1", "note": "(stereo partly drawn) [Compound I-439, 3-[4-chloro-3-({1-[4-(2-cyclopropoxyphenyl)pyridin-3-yl]cyclopropoxy}methyl)benzenesulfonamido]-N-[(2S,3R,4R,5R)-2,3,4,5,6-pentahydroxyhexyl]cyclopentane-1-carboxamide]", "EC50": "< 0.1"}
